Data: patent US7892755B2, “Screening method” (Takeda Pharmaceutical Company Limited, priority 2004, dated 2011)

Legend:
Type in all cases: cell-based
control CHO-K1 cells = assay: Changes in intracellular calcium levels on FLIPR, control CHO-K1 cells with only expression vector pAKKO-111H
Protocol: (§1) The CHO-K1 cell line (purchased from ATCC) was incubated in HAM F-12 medium (Invitrogen) supplemented with 10% fetal calf serum, unless otherwise indicated. On the day before transfection, the cells were inoculated at 4.5×10^5/10 cm^2 and incubated at 37° C. for 15 hours or more in a CO2 incubator adjusted to 5% CO2 concentration. Using Lipofectamine reagent (Invitrogen), transfection was performed according to modifications of the procedure attached to the reagent. When a 6-well plate was used as the incubator, the transfection was performed as follows. Two tubes each having a 1.5 ml volume were prepared and 100 μl each of Opti-MEM medium (Invitrogen) was dispensed in each tube. Next, 1 μg of the GPR35 expression vector obtained in REFERENCE EXAMPLE 1 and 0.5 μg of Gα15 expression vector (Guthrie cDNA Resource Center) were incorporated into one tube and in another tube, 6 μl of Lipofectamine reagent was charged, which were then mixed together. The mixture was settled for 20 minutes at room temperature. To the solution, 800 μl of Opti-MEM medium was added and the resulting solution mixture for transfection was added to the CHO-K1 cells, which had been previously washed with Opti-MEM medium. The cells were then incubated in a CO2 incubator for 6 hours. After the incubation, the cells were rinsed with PBS (Invitrogen), then detached by 0.05% trypsin-EDTA solution (Invitrogen) and recovered by centrifugal operation. The cells obtained were counted and diluted to 5×10^4 cells per 100 μl of the medium. The dilution was dispensed to a black walled 96-well plate (Costar) at 100 μl per well, followed by incubation overnight in a CO2 incubator. Various test samples were added to the CHO-K1 cells, in which the receptor was transiently expressed, by the transfection procedure described above, whereby changes in intracellular calcium levels were assayed on a FLIPR (Molecular Device).
(§2) To assay the changes in intracellular calcium levels on FLIPR, the following pretreatment was made. First, an assay buffer was prepared to add fluorescence dye Fluo-3AM (DOJIN) to the cells, or to wash the cells immediately before the FLIPR assay. A solution was prepared by adding 20 ml of 1M HEPES (pH 7.4) (DOJIN) to 1000 ml of HBSS (Invitrogen) (hereinafter HBSS/HEPES solution). To the solution, there was added 10 ml of a solution obtained by dissolving 710 mg of Probenecid (Sigma) in 5 ml of 1N NaOH and further adding 5 ml of HBSS/HEPES solution thereto and mixing them. The resulting solution was used as an assay buffer. Next, 50 μg of Fluo-3AM was dissolved in 21 μl of DMSO (DOJIN), and an equal volume of 20% pluronic acid (Molecular Probes) was added to the solution. After mixing them, the mixture was added to 10.6 ml of an assay buffer supplemented with 105 μl of fetal calf serum to give a fluorescence dye solution. After the medium for the transfected CHO-K1 cells was removed, the fluorescence dye solution was immediately dispensed at 100 μl each per well and incubation was carried out in a CO2 incubator for an hour to take up the fluorescence dye into the cells. The incubated cells were washed with the assay buffer described above and set on FLIPR. Test samples to be added to the receptor-expressed CHO-K1 cells were prepared using the assay buffer and simultaneously set on FLIPR.
After the pretreatment described above was made, changes in intracellular calcium levels by the addition of various test samples were assayed on FLIPR. […]

GPR35 [1] = molecular target: T1, GPR35 (Homo sapiens, UniProt Q9HC97, S294R); assay: Changes in intracellular calcium levels on FLIPR, CHO-K1 cells transiently co-expressing GPR35 and Gα15; design: The resulting fragment (ca. 1 kb) was introduced into vector pAKKO-111; expressed in transfected cells; host or cells: CHO-K1 (ATCC), transient transfection; settings: Fluo-3AM, 0.3-10 μM shown for DNQX and ellagic acid (FIG. 1, 2)
Protocol: as §1, §2
After the pretreatment described above was made, changes in intracellular calcium levels by the addition of various test samples were assayed on FLIPR.

mouse GPR35 = molecular target: T2, mouse GPR35 (Mus musculus, UniProt Q9ES90, D300Y/S286F); assay: Reactivity on FLIPR, CHO-K1 cells transfected with mouse GPR35 expression vector
T2 construct: the digestion product was inserted into plasmid vector pAKKO-111H; expressed in transfected cells; host or cells: CHO-K1 cells
Protocol: The CHO-K1 cell line (purchased from ATCC) was incubated in HAM F-12 medium (Invitrogen) supplemented with 10% fetal calf serum, unless otherwise indicated. On the day before transfection, the cells were inoculated at 4.5×10^5/10 cm^2 and incubated at 37° C. for 15 hours or more in a CO2 incubator adjusted to 5% CO2 concentration. Using Lipofectamine reagent (Invitrogen), transfection was performed according to modifications of the procedure attached to the reagent. When a 6-well plate was used as the incubator, the transfection was performed as follows. Two tubes each having a 1.5 ml volume were prepared and 100 μl each of Opti-MEM medium (Invitrogen) was dispensed in each tube. […] The cells obtained were counted and diluted to 5×10^4 cells per 100 μl of the medium. […]
To assay the changes in intracellular calcium levels on FLIPR, the following pretreatment was made. First, an assay buffer was prepared to add fluorescence dye Fluo-3AM (DOJIN) to the cells, or to wash the cells immediately before the FLIPR assay. […] After mixing them, the mixture was added to 10.6 ml of an assay buffer supplemented with 105 μl of fetal calf serum to give a fluorescence dye solution. […]

GPR35 [2] = molecular target: T1, GPR35; assay: Changes in intracellular calcium levels on FLIPR, CHO cell line stably co-expressing human GPR35 and Gα16; design: expressed in transfected cells
Protocol: The Gα16-stably expressed cell line (Gα16/CHO cell line) as a host cell was prepared by transfecting the Gα16 expression vector (Guthrie cDNA Resource Center) into CHO cells in a conventional manner and incubating at 37° C. under 5% CO2 in αMEM medium (containing nucleic acid; Invitrogen) supplemented with 10% fetal calf serum (Invitrogen), 50 units/ml penicillin/50 ug/ml streptomycin (CAMBREX) and 1 mg/ml geneticin (Invitrogen). The cells that were incubated for 2 days in αMEM medium (containing nucleic acid) supplemented only with 10% fetal calf serum charged in a 75 cm^2 flask were used for the transfection. The transfection was carried out using Lipofectamine reagent (Invitrogen) by a modification of the protocol attached to the reagent. First, 2 centrifuge tubes each having a 15 ml volume were prepared and 600 μl each of Opti-MEM medium (Invitrogen) was dispensed in each tube. Next, 4.8 μg of the expression vector was charged in one tube and in another tube 36 μl of Lipofectamine reagent was charged, which were mixed together. The mixture was settled for 20 minutes at room temperature. […] The cells obtained were counted and diluted with αMEM medium (containing no nucleic acid; Invitrogen) supplemented only with 10% dialyzed fetal calf serum to have 0.3, 1.5 and 7.5 cells per 100 μl of the medium. […]

T1 sequence (Q9HC97 whole entry S294R, the tested form may be a part): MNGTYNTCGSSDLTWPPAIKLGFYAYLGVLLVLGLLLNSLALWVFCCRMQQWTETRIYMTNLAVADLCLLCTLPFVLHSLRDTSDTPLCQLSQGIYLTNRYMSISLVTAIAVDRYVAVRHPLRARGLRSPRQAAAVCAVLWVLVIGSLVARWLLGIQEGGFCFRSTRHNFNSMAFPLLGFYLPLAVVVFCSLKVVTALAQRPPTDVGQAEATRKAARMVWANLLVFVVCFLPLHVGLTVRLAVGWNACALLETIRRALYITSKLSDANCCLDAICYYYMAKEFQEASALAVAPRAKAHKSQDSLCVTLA
T2 sequence (Q9ES90 whole entry S286F/D300Y): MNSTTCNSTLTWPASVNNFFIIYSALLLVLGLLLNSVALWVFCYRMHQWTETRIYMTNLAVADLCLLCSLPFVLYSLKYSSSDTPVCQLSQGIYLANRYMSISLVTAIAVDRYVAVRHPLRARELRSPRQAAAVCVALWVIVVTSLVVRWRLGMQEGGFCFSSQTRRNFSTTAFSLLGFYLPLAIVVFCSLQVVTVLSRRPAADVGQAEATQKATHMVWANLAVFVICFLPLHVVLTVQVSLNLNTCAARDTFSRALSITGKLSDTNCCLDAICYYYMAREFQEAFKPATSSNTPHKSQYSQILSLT

reactivity of mouse GPR35 (FLIPR) (mouse GPR35) | intracellular calcium levels (GPR35 [2]) | SMILES | response (increased intracellular calcium levels) in control cells (control CHO-K1 cells) | response (increased intracellular calcium levels) (GPR35 [1])
 |  | O=C1N=c2cc([N+](=O)[O-])cc([N+](=O)[O-])c2=NC1=O [5,7-dinitroquinoxaline-2,3-dione] | not observed | dose-dependently responded (increased intracellular calcium levels)
 |  | N#Cc1cc2c(cc1[N+](=O)[O-])=NC(=O)C(=O)N=2 [6-cyano-7-nitroquinoxaline-2,3-dione] | not observed | dose-dependently responded (increased intracellular calcium levels)
responsive | increased | O=c1oc2c(O)c(O)cc3c(=O)oc4c(O)c(O)cc1c4c23 [ellagic acid] | not observed | dose-dependently responded (increased intracellular calcium levels)
